Experimental data taken from the supplement of paper PMC11208160.

Experiment: recombinant UMI read abundance after kanamycin selection (control-corrected) (log10(CPM+1)); higher = more efficient recombination; extreme values may be limits of the assay; sequences stand for … in AGTGCAGAGAAAATCGGCCAGTTTTCTCTGCCTGCAGTCCGCATGCCGTGGGACCCCTTGGGTTCTAACCTGTTGCCTAGATTTATGCAGCGGACTGCCTTTCTCCCAAAGTGATAAACCGG…AGGTTGGTTTCACT; site = the 11-nt donor
Outline: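 The measure is log10(CPM+1) for recombinant UMIs. These were PCR-amplified across the donor–target junction and sequenced after Escherichia coli carrying a donor and donor-binding-loop pair library and a target plasmid with T7-inducible IS621 bridge recombinase was plated on IPTG (0.07 mM) plus kanamycin or unselected. CPM were averaged over two replicates and scaled by control-derived factors.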
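Note: IS621 bridge recombinase in Escherichia coli cells against a fixed T5 target plasmid.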

Sequence	recombinant UMI read abundance (log10)
TAATGAACATGGACCGGTTTTCCCGGTAATCCGTATTTGGG (site TAATGATCTCC)	0.399
TAATGAGCATGGACCGGTTTTCCCGGTAATCCGTATTTGGA (site TAATGAGCTAC)	0.0122
TAATGAGCATGGACCGGTTTTCCCGGTAATCCGTATTTGGA (site TAATGAGCTCC)	0.0122
TAATGAGCATGGACCGGTTTTCCCGGTAATCCGTATTTGGA (site TAATGAGCTGC)	0
TAATGAGCATGGACCGGTTTTCCCGGTAATCCGTATTTGGA (site TAATGAGCTTC)	0.729
TAATGCGCATGGACCGGTTTTCCCGGTAATCCGTATTTGGG (site TAATGAGCTCC)	0.0175
TAATGCGCATGGACCGGTTTTCCCGGTAATCCGTATTTGGG (site TAATGCGCTCC)	0
TAATGCGCATGGACCGGTTTTCCCGGTAATCCGTATTTGGG (site TAATGGGCTCC)	0.0249
TAATGCGCATGGACCGGTTTTCCCGGTAATCCGTATTTGGG (site TAATGTGCTCC)	0.00404
TAATGGCCATGGACCGGTTTTCCCGGTAATCCGTATTTGCA (site AAATGGCCTTG)	0.00563
TAATGGCCATGGACCGGTTTTCCCGGTAATCCGTATTTGCA (site CAATGGCCTTG)	0.089
TAATGGCCATGGACCGGTTTTCCCGGTAATCCGTATTTGCA (site GAATGGCCTTG)	0.00525
TAATGGCCATGGACCGGTTTTCCCGGTAATCCGTATTTGCA (site TAATGGCCTTG)	0.0063
TAATTCGCATGGACCGGTTTTCCCGGTAATCCGTATTTGTG (site TAATTCGCTCA)	0.0276
TACACCTCATGGACCGGTTTTCCCGGTAATCCGTATTTGAA (site TACACCTCTTT)	0.804
TACACCTCATGGACCGGTTTTCCCGGTAATCCGTATTTGCA (site TACACCTCTTG)	2.35
TACAGCCCATGGACCGGTTTTCCCGGTAATCCGTATTTGGA (site TACAGCCCTTC)	0.0282
TACATCCCATGGACCGGTTTTCCCGGTAATCCGTATTTGAG (site TACATCCCTCT)	0.0123
TACATGACATGGACCGGTTTTCCCGGTAATCCGTATTTGCG (site TACATGACTCG)	1.12
TACATGACATGGACCGGTTTTCCCGGTAATCCGTATTTGTG (site TACATGACTCA)	0.61
TACATGTCATGGACCGGTTTTCCCGGTAATCCGTATTTGTC (site TACATGTCTGA)	1.56
TACCCACCATGGACCGGTTTTCCCGGTAATCCGTATTTGAC (site TACCCACCTGT)	0
TACCGTTCATGGACCGGTTTTCCCGGTAATCCGTATTTGTT (site TACCGTTCTAA)	0.218

Sequence	recombinant UMI read abundance (log10)
TACCTCCCATGGACCGGTTTTCCCGGTAATCCGTATTTGGC (site TACCTCCCTGC)	0
TACCTGCCATGGACCGGTTTTCCCGGTAATCCGTATTTGTA (site TACCTGCCTTA)	0.0209
TACCTTACATGGACCGGTTTTCCCGGTAATCCGTATTTGGA (site TACCTTACTTC)	0.0267
TACGCACCATGGACCGGTTTTCCCGGTAATCCGTATTTGAG (site TACGCACCTCT)	0.0119
TACGGATCATGGACCGGTTTTCCCGGTAATCCGTATTTGTA (site TACGGATCTTA)	0.989
TACGGTACATGGACCGGTTTTCCCGGTAATCCGTATTTGTG (site TACGGTACTCA)	0.582
TACGGTGCATGGACCGGTTTTCCCGGTAATCCGTATTTGAC (site TACGGTGCTGT)	1.15
TACGTGACATGGACCGGTTTTCCCGGTAATCCGTATTTGCT (site TACATGACTAG)	1.65
TACGTGACATGGACCGGTTTTCCCGGTAATCCGTATTTGCT (site TACCTGACTAG)	0.0236
TACGTGACATGGACCGGTTTTCCCGGTAATCCGTATTTGCT (site TACGTGACTAG)	2.43
TACGTGACATGGACCGGTTTTCCCGGTAATCCGTATTTGCT (site TACTTGACTAG)	0.238
TACTAGGCATGGACCGGTTTTCCCGGTAATCCGTATTTGGT (site TACTAGGCTAC)	0.225
TACTAGGCATGGACCGGTTTTCCCGGTAATCCGTATTTGGT (site TCCTAGGCTAC)	0.0602
TACTAGGCATGGACCGGTTTTCCCGGTAATCCGTATTTGGT (site TGCTAGGCTAC)	0.0175
TACTAGGCATGGACCGGTTTTCCCGGTAATCCGTATTTGGT (site TTCTAGGCTAC)	0.00516
TACTATGCATGGACCGGTTTTCCCGGTAATCCGTATTTGCG (site TACTATGCTCG)	0.64
TACTGGACATGGACCGGTTTTCCCGGTAATCCGTATTTGCT (site TACTAGACTAG)	0.948
TACTGGACATGGACCGGTTTTCCCGGTAATCCGTATTTGCT (site TACTCGACTAG)	0.188
TACTGGACATGGACCGGTTTTCCCGGTAATCCGTATTTGCT (site TACTGGACTAG)	2.01
TACTGGACATGGACCGGTTTTCCCGGTAATCCGTATTTGCT (site TACTTGACTAG)	0.00209
TACTTGACATGGACCGGTTTTCCCGGTAATCCGTATTTGCC (site TACTTGACTAG)	0.0078
TACTTGACATGGACCGGTTTTCCCGGTAATCCGTATTTGCC (site TACTTGACTCG)	0.0284
TACTTGACATGGACCGGTTTTCCCGGTAATCCGTATTTGCC (site TACTTGACTGG)	0

Sequence	recombinant UMI read abundance (log10)
TACTTGACATGGACCGGTTTTCCCGGTAATCCGTATTTGCC (site TACTTGACTTG)	0.00491
TACTTGACATGGACCGGTTTTCCCGGTAATCCGTATTTGTG (site TACTTGACTCA)	0.00608
TACTTTCCATGGACCGGTTTTCCCGGTAATCCGTATTTGCG (site TACTTTCCTCG)	1.29
TACTTTCCATGGACCGGTTTTCCCGGTAATCCGTATTTGCT (site TACTTTCCTAG)	0.537
TACTTTGCATGGACCGGTTTTCCCGGTAATCCGTATTTGGA (site TACTTTGCTTC)	0.0143
TAGAAATCATGGACCGGTTTTCCCGGTAATCCGTATTTGCG (site TAGAAATCTCG)	2.05
TAGAAATCATGGACCGGTTTTCCCGGTAATCCGTATTTGCG (site TAGCAATCTCG)	1.42
TAGAAATCATGGACCGGTTTTCCCGGTAATCCGTATTTGCG (site TAGGAATCTCG)	1.44
TAGAAATCATGGACCGGTTTTCCCGGTAATCCGTATTTGCG (site TAGTAATCTCG)	2.33
TAGAACACATGGACCGGTTTTCCCGGTAATCCGTATTTGTC (site TAGAACACTGA)	2.34
TAGAAGACATGGACCGGTTTTCCCGGTAATCCGTATTTGCC (site TAGAAGACTGG)	2.25
TAGAATACATGGACCGGTTTTCCCGGTAATCCGTATTTGTA (site TAGAATACTTA)	1.55
TAGAATACATGGACCGGTTTTCCCGGTAATCCGTATTTGTA (site TAGAATACTTC)	0.00357
TAGAATACATGGACCGGTTTTCCCGGTAATCCGTATTTGTA (site TAGAATACTTG)	0.697
TAGAATACATGGACCGGTTTTCCCGGTAATCCGTATTTGTA (site TAGAATACTTT)	0.208
TAGAATACATGGACCGGTTTTCCCGGTAATCCGTATTTGTG (site TAGAATACTCA)	2.01
TAGACGACATGGACCGGTTTTCCCGGTAATCCGTATTTGAC (site TAGACGACTGT)	2.6
TAGACGGCATGGACCGGTTTTCCCGGTAATCCGTATTTGGC (site TAGACGGCTGC)	2.75
TAGACTCCATGGACCGGTTTTCCCGGTAATCCGTATTTGCA (site TAGACTCCTTG)	1.54
TAGCAATCATGGACCGGTTTTCCCGGTAATCCGTATTTGCG (site TAGAAATCTCG)	0
TAGCAATCATGGACCGGTTTTCCCGGTAATCCGTATTTGCG (site TAGCAATCTCG)	1.45
TAGCAATCATGGACCGGTTTTCCCGGTAATCCGTATTTGCG (site TAGGAATCTCG)	0
